Test results from patent publication US20240125703A1, “SYSTEMS AND METHODS FOR Q[…] OBSERVED VISUALIZATION OF FL[…] AGENTS” (Stryker Corporation, priority 2022, published 2024).

Key:
[1] = Urine concentration of pudexacianinium in minipigs; assay type: in vivo, Gottingen minipigs; settings: 0.01 mg/kg; over 3 hour observation period
Protocol: A direct translation of the nonclinical pharmacology visualization results in the intended clinical use and dose in humans is considered feasible given the simple elimination route of the dye in both cases (eliminated entirely through renal system) and given the physiologic comparability between porcine and human kidneys. The 0.01 mg/kg dose used in pigs translates to an approximate human equivalent dose of 0.7-0.8 mg/participant. This is consistent with the dose recommendation for the clinical Phase 3 study (1 mg/participant).

[2] = tested on: ureters; test: In vivo ureter visualization in Gottingen minipigs, NIR-F camera, visual assessment by three clinicians
Protocol: Next, the ability to visualize ureters in vivo was assessed in Gottingen minipigs. The animals were anesthetized, laparotomized and then intravenously injected with pudexacianinium (0.001 or 0.01 mg/kg). Videos of the abdominal cavity were taken using a NIR-F camera and assessed visually by three independent clinicians for up to three hours.

[3] = tested on: ureter(s); test: Phase 2 dose ranging study, Visualization Review Committee (VRC) assessment of ureter visualization; assay type: in vivo, human
Description: The results from the Phase 1 study provided the foundation for Phase 2 study, a randomized open-label, dose ranging study for ureter visualization, using ASP5354 in participants undergoing laparoscopic/minimally invasive colorectal surgery.
The results of the Phase 2 study support the use of pudexacianinium as an intraoperative ureter visualization (surgeon's ability to identify/locate the ureter from the surrounding structures) during the entire abdominopelvic surgical procedure. […] As a result, the VRC recommended moving forward with the 1 mg per participant dose for Phase 3.

[4] = tested on: ureters; test: Qualitative in vivo ureter visualization in Yorkshire pig (Stryker 1588 AIM System and SPY-PHI open field system); settings: 0.01 mg/kg, iv; either imaging system; prior to any dissection
Protocol: In a second qualitative in vivo study, pudexacianinium (0.01 mg/kg, iv) was injected into a healthy female Yorkshire pig and the ureters were visualized using examples of an image guided surgery system 10 of FIG. 1A—a Stryker Corporation 1588 AIM System and a Stryker Corporation SPY-PHI open field system—prior to any dissection.

[5] = In vitro NIR-F of ASP5354 in 96 well plates, microplate reader (excitation 780 nm, emission 820 nm); assay type: physicochemical; settings: 0.01-1000 μg/mL in 96 well plates
Protocol: The following example illustrates using a measure of visual enhancement of the anatomy of interest in a color image (a contrast enhancement factor), generated according to method 100, as an alternative to biological samples for bioequivalence and bioavailability assessments of a fluorescence imaging agent, in particular the fluorescence dye ASP5354 (pudexacianinium). In this example, two in vitro studies were performed to determine the effect of ASP5354 concentration on near-infrared fluorescence (NIR-F). In the first study, ASP5354 (0.01-1000 μg/mL) was added to 96 well plates, the plates placed in a microplate reader, and subjected to a near-infrared excitation frequency of 780 nm. The emitted NIR-F determined at a wavelength of 820 nm. The fluorescence intensity increased as the concentration of pudexacianinium increased and tended to plateau at concentrations greater than or equal to 100 μg/mL.

[6] = tested on: ureters; test: Contrast quantification / contrast enhancement factor (CEF) from surgical video frames of ureters, laparoscopic/minimally invasive colorectal surgery (Phase 2); assay type: in vivo, human; settings: for contrast quantification: single subject, 1.0 mg dose
Protocol: The following example illustrates using contrast quantification, according to method 100, to assess the visual effectiveness of different fluorescence imaging agent doses. In this example, subjects undergoing laparoscopic/minimally invasive colorectal surgery received doses of either 0.3 mg, 1.0 mg, or 3 mg of pudexacianinium chloride (Chemical formula (A))—an indocyanine-green derivative fluorescence imaging agent with hydrophilic properties and rapid urinary clearance without metabolism after intravenous administration—at the start of the minimally invasive surgery procedure and the normal colectomy was completed.
At pre-specified time intervals during the surgery, the surgeon utilized a fluorescence visualization system to examine the retroperitoneum and attempted to visualize the ureters. The surgical videos generated by the fluorescence visualization system were recorded. Frames from these surgical videos were analyzed according to method 100 to quantify the color contrast observable by the surgeon when a bolus of the fluorescence imaging agent passed through the ureters.
Baseline and fluorescence-containing images for a subject who received a 1.0 mg dose of the fluorescence imaging agent are illustrated in FIG. 5—baseline image 400 and fluorescence-containing image 402. The color images 400, 402 are full color surgical video frames generated by a fluorescence visualization system that combines full color and fluorescence frames into a combined frame in which the fluorescence signal is captured in the green component of the frame. The color images 400, 402 capture a portion of a ureter, which is visible in bright green in fluorescence-containing image 402. The fluorescence-containing image 402 was captured while a bolus of the fluorescence imaging agent was present in the portion of the ureter within the field of view, and the baseline image 400 was captured shortly after the bolus of the fluorescence imaging agent had at least partially passed through the portion of the ureter.
Each of the color images 400, 402 was imported in a video analysis software and exported as separate greyscale bitmaps of the red (R), green (G) and blue (B) color components corresponding to each full color image frame.
Next, a line was plotted that transects the ureter at the same location on both the fluorescence-containing and baseline bitmaps for each R, G, and B color component. Graphs were subsequently created that plot the bitmap signal intensity values at each point along the line segment against position on the line segment for each line segment in each color component. Red, green and blue graphs were constructed for each pair of fluorescence-containing — baseline color components. Exemplary graphs are illustrated in FIGS. 7A-C, which include the graphs for each color component for the fluorescence-containing image (“dye”) and baseline image (“no-dye”) on the same plot. FIG. 7A is the graph for the red color component for the fluorescence-containing and baseline images, FIG. 7B is the graph for the blue color component for the fluorescence-containing and baseline images, and FIG. 7C is the graph for the green color component for the fluorescence-containing and baseline images,
At least the graph for the green component was then analyzed to identify, according to steps 104 and 106 of method 100, regions along the line segment (shown in FIG. 7D as position 0-300) that—by comparison with the bitmap—lie clearly inside the anatomical boundaries of the ureter (a region encompassed by the anatomy of interest according to step 104) or clearly outside of those same anatomical boundaries (a region not encompassed by the anatomy of interest according to step 106). Note that the “inside” and “outside” regions are different for the fluorescence imaging agent (“dye”) and baseline (“no Dye”) images due to the differences in the field of view of the color images. […]

[7] = tested on: pig ureters ex vivo; test: NIR-F of pudexacianinium instilled in pig ureters ex vivo (PDE-NEO NIR-F imager); settings: for NIR-F Intensity: mean, three ureters
Protocol: In the second study, pudexacianinium (0.01-10 μg/mL) was instilled in pig ureters ex vivo and the NIR-F determined using a PDE-NEO NIR-F imager. Here too, the NIR-F intensity increased with increasing concentrations of pudexacianinium with the fluorescence intensity tending to plateau at concentrations equal to or greater than 1 μg/mL, as shown in the table below. Thus, the fluorescence activity of pudexacianinium can be visualized in the lumen of ureters.

[8] = Dye in ureter, 1 mg (N = 6) including expansion
[9] = No Dye in ureter, 0.3 mg (N = 3)
[10] = No Dye in ureter, 1 mg (N = 6) including expansion

Question: Which results are given for pudexacianinium chloride?
Answer: urine concentration of pudexacianinium [1]: 1 to 6 µg/mL; animals demonstrating ureteral visualization for three hours ([2]; 0.001 mg/kg intravenously): one out of three; animals showing ureteral visualization for the full three hour observation period ([2]; 0.01 mg/kg intravenously): three out of three; VRC: adequacy for ureter(s) visualization ([3]; 0.3 mg per participant): inadequate for ureter(s) visualization; VRC: ureter(s) visualization ([3]; 1 mg per participant, during procedure, at beginning and end): provided ureter(s) visualization during the surgical procedure; VRC: difference in ureter(s) visualization between doses ([3]; 1 mg vs 3 mg dose): no notable differences; VRC conclusion on ureter visualization under NIR-F conditions ([3]; all doses (0.3, 1, 3 mg per participant)): enhanced visualization of ureter(s); VRC: visualization throughout the duration of the surgical procedure ([3]; single dose of 1 mg and 3 mg per participant): consistently occurred; visibility of ureters [4]: readily visible; concentration at which fluorescence intensity tended to plateau [5]: greater than or equal to 100 μg/mL; Contrast quantification, Mean ([6]; 0.3 mg, N 3, Baseline image): 1.10; Contrast quantification, Mean ([6]; 0.3 mg, N 3, Fluorescence-containing image): 1.84; proportion of data with CEF above 1.5 ([6]; 1 mg and 3 mg, dye): ≥ 90%; Contrast quantification, Mean ([6]; 1.0 mg, N 6, Fluorescence-containing image (first column of the dose)): 2.55; Contrast quantification, Mean ([6]; 1.0 mg, N 6, head printed Fluorescence-containing image (second column of the dose)): 1.06; Contrast quantification, Mean ([6]; 3.0 mg, N 3, Fluorescence-containing image (first column of the dose)): 3.23; Contrast quantification, Mean ([6]; 3.0 mg, N 3, head printed Fluorescence-containing image (second column of the dose)): 1.09; CEF, Mean (SD) ([6]; Dye in ureter, 0.3 mg (N = 3)): 1.84 (0.46); CEF, Median ([6]; Dye in ureter, 0.3 mg (N = 3)): 1.77; CEF, Min-Max ([6]; Dye in ureter, 0.3 mg (N = 3)): 1.3-3.0; CEF, Mean (SD) ([6]; Dye in ureter, 1 mg (N = 3)): 2.97 (1.03); CEF, Median ([6]; Dye in ureter, 1 mg (N = 3)): 2.96; CEF, Min-Max ([6]; Dye in ureter, 1 mg (N = 3)): 1.6-5.6; CEF, Mean (SD) [6, 8]: 2.55 (0.95); CEF, Median [6, 8]: 2.28; CEF, Min-Max [6, 8]: 1.3-5.6; CEF, Mean (SD) ([6]; Dye in ureter, 3 mg (N = 3)): 3.23 (1.70); CEF, Median ([6]; Dye in ureter, 3 mg (N = 3)): 2.64; CEF, Min-Max ([6]; Dye in ureter, 3 mg (N = 3)): 1.2-7.7; CEF, Mean (SD) [6, 9]: 1.10 (0.13); CEF, Median [6, 9]: 1.05; CEF, Min-Max [6, 9]: 0.9-1.3; CEF, Mean (SD) ([6]; No Dye in ureter, 1 mg (N = 3)): 1.06 (0.12); CEF, Median ([6]; No Dye in ureter, 1 mg (N = 3)): 1.07; CEF, Min-Max ([6]; No Dye in ureter, 1 mg (N = 3)): 0.8-1.3; CEF, Mean (SD) [6, 10]: 1.06 (0.12); CEF, Median [6, 10]: 1.06; CEF, Min-Max [6, 10]: 0.8-1.4; CEF, Mean (SD) ([6]; No Dye in ureter, 3 mg (N = 3)): 1.09 (0.10); CEF, Median ([6]; No Dye in ureter, 3 mg (N = 3)): 1.10; CEF, Min-Max ([6]; No Dye in ureter, 3 mg (N = 3)): 0.7-1.2; contrast quantification ([6]; baseline image): 1.3; contrast quantification value for the baseline images ([6]; baseline images, absence of bolus): around 1; contrast quantification ([6]; fluorescence imaging agent image): 2.0; CEF value, all data points ([6]; no dye conditions): below 1.5; reference CEF ([6]; no dye present in the ureter): ~1; NIR-F Intensity ([7]; 0.01 ug/mL): 0.000 arbitrary units; NIR-F Intensity ([7]; 0.03 ug/mL): 4.672 arbitrary units; NIR-F Intensity ([7]; 0.1 ug/mL): 47.945 arbitrary units; NIR-F Intensity ([7]; 0.3 ug/mL): 125.078 arbitrary units; NIR-F Intensity ([7]; 1.0 ug/mL): 229.504 arbitrary units; NIR-F Intensity ([7]; 3.0 ug/mL): 254.867 arbitrary units; NIR-F Intensity ([7]; 10 ug/mL): 254.808 arbitrary units; concentration at which NIR-F intensity tended to plateau ([7]; 0.01-10 μg/mL in pig ureters ex vivo): ≥ 1 µg/mL
